These are literature values, as cited in patent US7294691B1, “Soluble secreted α2δ-2calcium channel subunit polypeptide” (Warner Lambert Company, priority 2000, dated 2007).

The data set has as its system [^3H]gabapentin binding site. Particulars: saturation binding in the presence of L-leucine; reduces [^3H]gabapentin binding affinity.

Regarding `CC(C)C[C@H](N)C(=O)O` [L-Leucine], the “interaction with the [^3H]gabapentin binding site” value is reported as “competitive interaction”.
